These results are taken from US20220023433A1, “Saponin Conjugates” (Sapreme Technologies B.V., priority 2018, published 2022).

Data set [1] can be described thus: pH dependent hydrolysis of the hydrazone bond followed by MALDI-TOF-MS. In kind it is physicochemical. As to conditions: HCl solution at pH 3; MALDI-TOF-MS at two points in time.
The test system of a further data set is HeLa cells. Put plainly: Cell viability assay (MTS): co-administration with SO1861 and dianthin-EGF, inhibition of SO1861-mediated endosomal escape. In kind it is cell-based, human. As to conditions: 500 nM test substance + SO1861 concentration curve + […] dianthin-EGF, 72 hr. How it is done: HeLa cells were seeded in DMEM (PAN-Biotech GmbH) supplemented with 10% fetal bovine serum (PAN-Biotech GmbH) and 1% penicillin/streptomycin (PAN-Biotech GmbH), in a 96 well plate at 5,000 c/w in 100 μL/well and incubated overnight at 37° C. and 5% CO2. The next day 20× concentrated stocks of the PAMAM, PAMAM-conjugates, G4-dendron (prepared in Example 3) or chloroquine (Sigma Aldrich) samples were prepared in DMEM. The media was removed from the cell culture plate and replaced by […] culture media, followed by the addition of 10 μL sample/well (from the 20× concentrated stocks) and a 45 min incubation at 37° C. […] Followed by 15 sec sonication and a brief re-heating at 50° C. for 1 min, while shaking at 1,250 rpm. Subsequently a serial dilution of SO1861 was prepared in PBS.
As control for the inhibition of endosomal acidification chloroquine was used.

The next data set concerns breast cancer. The settings on record: preclinical models of breast cancer; cited from earlier work.

Consider `CC(=O)OC1C(C)OC(OC2C(C)OC(OC(=O)[C@]34CCC(C)(C)CC3C3=CCC5[C@@]6(C)CC[C@H](OC7OC(C(=O)O)C(O)C(OC8OCC(O)C(O)C8O)C7OC7OC(CO)C(O)C(O)C7O)[C@@](C)(/C=N/NC(=O)CCCCCN7C(=O)C=CC7=O)C6CC[C@@]5(C)[C@]3(C)C[C@H]4O)C(OC3OC(C)C(OC4OCC(O)C(OC5OC(CO)C(O)C(O)C5O)C4O)C(O)C3O)C2O)C(O)C1OC1OCC(O)C(O)C1O` (stereo partly drawn) [SO1861-EMCH], for which the “hydrolysis of the hydrazone bond” value in data set [1] was “the hydrazone bond is responsive towards hydrolysis and gets cleaved”. On to `CCN(CC)CCCC(C)Nc1ccnc2cc(Cl)ccc12` (stereo not drawn) [chloroquine], for which, in the data set with HeLa cells, the “inhibition of SO1861-mediated endosomal escape of the targeted toxin and subsequent cell killing” value was “inhibit the SO1861-mediated endosomal escape of the targeted toxin and subsequent cell killing”.

As for ado-trastuzumab emtansine, in the data set with breast cancer, the “dose levels inducing tumor regression” value is ≥ 3 mg/kg.
